Experimental data as given in DBAASP.
Values after ≈ are worked out from the molar mass of the structure shown.

Legend:
Assay in all cases: ≥ marks a high value that may be exact or a test limit, other limits are often not marked, values filed in µg/mL are converted to µM
[1] = system: Escherichia coli ATCC 25922
[2] = system: Staphylococcus aureus NCTC 8325
[3] = system: Candida albicans ATCC 90028
[4] = system: Acinetobacter baumannii ATCC 19606
[5] = system: Acinetobacter baumannii
[6] = system: Escherichia coli
[7] = system: Klebsiella pneumoniae ATCC 13883
[8] = system: Klebsiella pneumoniae
[9] = system: Pseudomonas aeruginosa ATCC 27853
[10] = system: Pseudomonas aeruginosa
[11] = system: Staphylococcus aureus ATCC 25923
[12] = system: Staphylococcus aureus
[13] = system: Escherichia coli ATCC 25726

| Compound | MIC [1] [µM] | MIC [2] [µM] | other results |
| --- | --- | --- | --- |
| CC[C@H](C)[C@H](NC(=O)CNC(=O)[C@H](CCC(N)=O)NC(=O)[C@H](Cc1ccccc1)NC(=O)[C@@H](NC(=O)[C@H](CCCCN)NC(=O)[C@H](CCCCN)NC(=O)[C@H](Cc1ccccc1)NC(=O)[C@H](C)NC(=O)[C@H](CC(N)=O)NC(=O)[C@H](CC(C)C)NC(=O)CN)C(C)C)C(=O)N[C@@H](Cc1cnc[nH]1)C(=O)N[C@@H](CCC(=O)O)C(=O)N[C@@H](C)C(=O)N[C@H](C(=O)N[C@@H](CCCCN)C(=O)N[C@@H](CC(C)C)C(=O)N[C@H](C(=O)N[C@@H](CC(N)=O)C(=O)N[C@@H](CC(N)=O)C(=O)N[C@@H](Cc1cnc[nH]1)C(=O)N[C@H](C(=O)N[C@@H](CCC(N)=O)C(=O)O)C(C)C)[C@@H](C)CC)[C@@H](C)CC [GLNAFKKVFQGIHEAIKLINNHVQ] | 20 (≈ 54.4 µg/mL) | ≥ 160 |  |
| CC[C@H](C)[C@H](N)C(=O)N[C@@H](CC(C)C)C(=O)N1CCC[C@H]1C(=O)N[C@H](C(=O)N[C@@H](CC(C)C)C(=O)NCC(=O)N[C@@H](CC(N)=O)C(=O)N[C@@H](CC(C)C)C(=O)N[C@@H](CC(C)C)C(=O)N[C@@H](CC(N)=O)C(=O)N[C@@H](CO)C(=O)N[C@@H](CC(C)C)C(=O)N[C@@H](CC(C)C)C(N)=O)[C@@H](C)CC [ILPILGNLLNSLL] | > 100 | ≥ 100 | MIC [3]: ≥ 100 µM |
| CC[C@H](C)[C@H](NC(=O)CNC(=O)[C@H](CCCCN)NC(=O)[C@H](Cc1ccccc1)NC(=O)[C@@H](NC(=O)[C@H](CCCCN)NC(=O)[C@H](CCCCN)NC(=O)[C@H](CC(C)C)NC(=O)[C@H](C)NC(=O)[C@H](CC(N)=O)NC(=O)[C@H](CC(C)C)NC(=O)CN)C(C)C)C(=O)N[C@@H](Cc1cnc[nH]1)C(=O)N[C@@H](CCC(=O)O)C(=O)N[C@@H](C)C(=O)N[C@H](C(=O)N[C@@H](CCCCN)C(=O)N[C@@H](CC(C)C)C(=O)N[C@H](C(=O)N[C@@H](CC(N)=O)C(=O)N[C@@H](CC(N)=O)C(=O)N[C@@H](Cc1cnc[nH]1)C(=O)N[C@H](C(=O)N[C@@H](CCC(N)=O)C(=O)O)C(C)C)[C@@H](C)CC)[C@@H](C)CC [GLNALKKVFKGIHEAIKLINNHVQ] | 20 (≈ 53.7 µg/mL) | ≥ 80 |  |
| CC[C@H](C)[C@H](NC(=O)CNC(=O)[C@H](CCC(N)=O)NC(=O)[C@H](Cc1ccccc1)NC(=O)[C@@H](NC(=O)[C@H](CCCCN)NC(=O)[C@H](CCCCN)NC(=O)[C@H](CC(C)C)NC(=O)[C@H](C)NC(=O)[C@H](CC(N)=O)NC(=O)[C@H](CC(C)C)NC(=O)CN)C(C)C)C(=O)N[C@@H](Cc1cnc[nH]1)C(=O)N[C@@H](CCCCN)C(=O)N[C@@H](C)C(=O)N[C@H](C(=O)N[C@@H](CCCCN)C(=O)N[C@@H](CC(C)C)C(=O)N[C@H](C(=O)N[C@@H](CC(N)=O)C(=O)N[C@@H](CC(N)=O)C(=O)N[C@@H](Cc1cnc[nH]1)C(=O)N[C@H](C(=O)N[C@@H](CCC(N)=O)C(=O)O)C(C)C)[C@@H](C)CC)[C@@H](C)CC [GLNALKKVFQGIHKAIKLINNHVQ] | 20 (≈ 53.7 µg/mL) | ≥ 40 |  |
| CC[C@H](C)[C@H](N)C(=O)N[C@H](C(=O)N[C@H](C(=O)N1CCC[C@H]1C(=O)N1CCC[C@H]1C(=O)N[C@H](C(=O)N[C@H](C(=O)N[C@@H](CCCCN)C(=O)N[C@@H](CC(=O)O)C(=O)N[C@H](C(=O)N[C@@H](CC(C)C)C(=O)N[C@@H](CCCCN)C(=O)N[C@@H](CCCCN)C(=O)N[C@@H](Cc1ccccc1)C(=O)N[C@@H](Cc1ccccc1)C(=O)N[C@@H](CCCCN)C(=O)NCC(=O)NCC(=O)N[C@H](C(=O)N[C@@H](C)C(=O)NCC(=O)N[C@H](C(=O)N[C@@H](CCSC)C(=O)NCC(=O)N[C@@H](CCC(N)=O)C(=O)O)C(C)C)[C@@H](C)CC)[C@@H](C)O)C(C)C)[C@@H](C)CC)[C@@H](C)CC)[C@@H](C)O [ITIPPIVKDTLKKFFKGGIAGVMGQ] |  |  | MIC [13]: ≥ 40 µM; MIC [11]: 40 µM (≈ 106 µg/mL) |
| CC[C@H](C)[C@H](NC(=O)[C@H](C)NC(=O)[C@H](CC(C)C)NC(=O)[C@H](CC(N)=O)NC(=O)[C@H](CCCCN)NC(=O)[C@H](CC(C)C)NC(=O)[C@H](CO)NC(=O)[C@H](CC(=O)O)NC(=O)[C@H](CC(C)C)NC(=O)[C@H](CC(C)C)NC(=O)CN)C(=O)N[C@@H](CC(N)=O)C(=O)N[C@@H](C)C(=O)N[C@@H](C)C(=O)N[C@@H](CCCCN)C(=O)NCC(=O)N[C@@H](C)C(=O)NCC(=O)N[C@@H](CCC(N)=O)C(=O)N[C@@H](CO)C(=O)N[C@H](C(=O)N[C@@H](CC(C)C)C(=O)N[C@@H](CC(N)=O)C(=O)N[C@H](C(=O)N[C@@H](CC(C)C)C(=O)N[C@@H](CO)C(=O)N[C@H]1CSSC[C@@H](C(=O)O)NC(=O)[C@H]([C@@H](C)O)NC(=O)[C@H](CCCCN)NC(=O)[C@H](CO)NC(=O)[C@H](CC(C)C)NC(=O)[C@H](CCCCN)NC1=O)[C@@H](C)O)C(C)C [GLLDSLKNLAINAAKGAGQSVLNTLSCKLSKTC] |  |  | MIC [13]: ≥ 37.5 µM; MIC [11]: 18.8 µM (≈ 62.5 µg/mL) |

More lines, in order of falling MIC [1], values ahead:

| MIC [1] [µM] | MIC [2] [µM] | Compound | other results |
| --- | --- | --- | --- |
| 17 (≈ 49.6 µg/mL) | ≥ 70 | CC[C@H](C)[C@H](NC(=O)CN)C(=O)N[C@@H](CC(C)C)C(=O)N[C@@H](CC(=O)O)C(=O)N[C@H](C(=O)N[C@H](C(=O)N[C@@H](CCCCN)C(=O)N[C@@H](CC(N)=O)C(=O)N[C@@H](C)C(=O)N[C@@H](C)C(=O)N[C@@H](CCCCN)C(=O)N[C@H](C(=O)N[C@H](C(=O)N[C@@H](C)C(=O)N[C@H](C(=O)NCC(=O)N[C@@H](CC(C)C)C(=O)N[C@@H](CC(C)C)C(=O)N[C@@H](CCC(=O)O)C(=O)N[C@@H](CCCCN)C(=O)N[C@H](C(=O)N[C@@H](CCCCN)C(=O)N[C@H]1CSSC[C@@H](C(=O)O)NC(=O)CNC(=O)[C@H]([C@@H](C)O)NC(=O)[C@H](CCSC)NC(=O)[C@H](CCCCN)NC1=O)[C@@H](C)CC)C(C)C)C(C)C)[C@@H](C)O)[C@@H](C)CC)[C@@H](C)O [GILDTIKNAAKTVAVGLLEKIKCKMTGC] | MIC [3]: ≥ 150 µM |
| 5 (≈ 13.6 µg/mL) | 20 (≈ 54.2 µg/mL) | CC[C@H](C)[C@H](NC(=O)CNC(=O)[C@H](CCCCN)NC(=O)[C@H](Cc1ccccc1)NC(=O)[C@@H](NC(=O)[C@H](CCCCN)NC(=O)[C@H](CCCCN)NC(=O)[C@H](CC(C)C)NC(=O)[C@H](C)NC(=O)[C@H](CCCCN)NC(=O)[C@H](CC(C)C)NC(=O)CN)C(C)C)C(=O)N[C@@H](Cc1cnc[nH]1)C(=O)N[C@@H](CCCCN)C(=O)N[C@@H](C)C(=O)N[C@H](C(=O)N[C@@H](CCCCN)C(=O)N[C@@H](CC(C)C)C(=O)N[C@H](C(=O)N[C@@H](CC(N)=O)C(=O)N[C@@H](CCCCN)C(=O)N[C@@H](Cc1cnc[nH]1)C(=O)N[C@H](C(=O)N[C@@H](CCCCN)C(=O)O)C(C)C)[C@@H](C)CC)[C@@H](C)CC [GLKALKKVFKGIHKAIKLINKHVK] |  |
| 3 (≈ 7.7 µg/mL) | 1 (≈ 2.57 µg/mL) | CC[C@H](C)[C@H](NC(=O)[C@H](C)NC(=O)[C@@H]1CCCN1C(=O)[C@H](CC(C)C)NC(=O)[C@@H](N)Cc1ccccc1)C(=O)N[C@@H](C)C(=O)NCC(=O)N[C@@H](CCSC)C(=O)N[C@@H](C)C(=O)N[C@@H](C)C(=O)N[C@@H](CCCCN)C(=O)N[C@@H](Cc1ccccc1)C(=O)N[C@@H](CC(C)C)C(=O)N1CCC[C@H]1C(=O)N[C@@H](CCCCN)C(=O)N[C@H](C(=O)N[C@@H](Cc1ccccc1)C(=O)N[C@H]1CSSC[C@@H](C(=O)O)NC(=O)[C@H](CCCCN)NC(=O)[C@H](CCCCN)NC(=O)[C@H](CO)NC(=O)[C@H]([C@@H](C)CC)NC(=O)[C@H](C)NC1=O)[C@@H](C)CC [FLPAIAGMAAKFLPKIFCAISKKC] | MIC [3]: 10 µM (≈ 25.7 µg/mL) |
| 3 (≈ 10.6 µg/mL) | ≥ 50 | CSCC[C@H](NC(=O)[C@H](CC(C)C)NC(=O)[C@H](CO)NC(=O)CNC(=O)[C@H](C)NC(=O)[C@@H](NC(=O)[C@H](CC(N)=O)NC(=O)[C@H](CCCCN)NC(=O)[C@H](CC(C)C)NC(=O)[C@@H](NC(=O)[C@H](CC(N)=O)NC(=O)[C@H](CCCCN)NC(=O)CNC(=O)[C@@H](NC(=O)[C@H](CCCCN)NC(=O)[C@H](CCCCN)NC(=O)[C@H](Cc1ccccc1)NC(=O)[C@@H](NC(=O)[C@H](CC(N)=O)NC(=O)[C@H](Cc1ccccc1)NC(=O)[C@H](CC(C)C)NC(=O)CN)C(C)C)C(C)C)C(C)C)C(C)C)C(=O)N[C@@H](CC(=O)O)C(=O)N[C@@H](CC(N)=O)C(=O)N[C@@H](CC(C)C)C(=O)N[C@@H](CCCCN)C(=O)N[C@H]1CSSC[C@@H](C(=O)O)NC(=O)[C@H](CCC(=O)O)NC(=O)CNC(=O)[C@H](CO)NC(=O)[C@H](C(C)C)NC(=O)[C@H](CCCCN)NC1=O [GLFNVFKKVGKNVLKNVAGSLMDNLKCKVSGEC] |  |
| 0.354 (≈ 0.724 µg/mL) |  | CC[C@H](C)[C@H](NC(=O)[C@H](CCCCN)NC(=O)[C@H](CC(C)C)NC(=O)[C@H](C)NC(=O)[C@H](CCCCN)NC(=O)[C@H](CC(C)C)NC(=O)[C@H](C)NC(=O)CNC(=O)[C@H](CCCCN)NC(=O)[C@H](C)NC(=O)[C@@H](NC(=O)[C@@H](N)CCCCN)[C@@H](C)CC)C(=O)N[C@@H](C)C(=O)N[C@@H](CCCCN)C(=O)N[C@H](C(=O)N[C@@H](C)C(=O)N[C@@H](CC(C)C)C(=O)N[C@@H](CCCCN)C(=O)N[C@@H](C)C(=O)N[C@@H](CC(C)C)C(N)=O)C(C)C [KIAKGALKALKIAKVALKAL] | MIC [4]: 0.707 µM (≈ 1.45 µg/mL); MIC [5]: 0.5 µM (≈ 1.02 µg/mL); MIC [6]: 4 µM (≈ 8.19 µg/mL); MIC [7]: 2 µM (≈ 4.1 µg/mL); MIC [8]: 4 µM (≈ 8.19 µg/mL); MIC [9]: 2 µM (≈ 4.1 µg/mL); MIC [10]: 2.83 µM (≈ 5.79 µg/mL); MIC [11]: 11.3 µM (≈ 23.2 µg/mL); MIC [12]: 5.66 µM (≈ 11.6 µg/mL) |
